In PubChem BioAssay (NCI):
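96-well plates; 48 h exposure; 5 concentrations. Endpoints by linear interpolation between flanking doses. Not reached: highest tested concentration assigned. TGI marks complete inhibition of growth.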

Experiments:
Assay in all cases: NCI tumour cell line growth inhibition, 48 h
[1] = system: M19-MEL melanoma
[2] = system: NCI-H522 lung
[3] = system: U251 CNS
[4] = system: PC-3 prostate
[5] = system: IGROV1 ovarian
[6] = system: CCRF-CEM leukemia
[7] = system: MDA-MB-231 breast
[8] = system: LXFL 529 NSCLC
[9] = system: SF-295 CNS
[10] = system: SR leukemia
[11] = system: SK-OV-3 ovarian
[12] = system: HCT-116 colon
[13] = system: K-562 leukemia
[14] = system: RPMI-8226 leukemia
[15] = system: OVCAR-4 ovarian
[16] = system: DLD-1 colon
[17] = system: DMS 273 small cell lung
[18] = system: MDA-N
[19] = system: SW-620 colon
[20] = system: SF-539 CNS
[21] = system: M14 melanoma
[22] = system: LOX IMVI melanoma
[23] = system: OVCAR-3 ovarian
[24] = system: SK-MEL-2 melanoma
[25] = system: SN12C renal
[26] = system: UO-31 renal
[27] = system: TK-10 renal
[28] = system: HCC-2998 colon
[29] = system: HL-60(TB) leukemia
[30] = system: SK-MEL-28 melanoma
[31] = system: KM20L2 colon
[32] = system: ACHN renal
[33] = system: BT-549 breast
[34] = system: A549 NSCLC
[35] = system: CAKI-1 renal
[36] = system: KM12 colon
[37] = system: DMS 114 small cell lung
[38] = system: NCI-H23 lung
[39] = system: A498 renal
[40] = system: NCI-H460 lung
[41] = system: COLO 205 colon
[42] = system: NCI-H226 lung
[43] = system: MOLT-4 leukemia
[44] = system: T-47D breast
[45] = system: HOP-62 NSCLC
[46] = system: MALME-3M melanoma
[47] = system: 786-0 renal
[48] = system: HOP-92 NSCLC
[49] = system: HT29 colon
[50] = system: SNB-19 CNS
[51] = system: UACC-62 melanoma
[52] = system: RXF 393 renal
[53] = system: SK-MEL-5 melanoma
[54] = system: RXF-631 renal
[55] = system: SNB-75 CNS
[56] = system: MCF7 breast
[57] = system: SF-268 CNS
[58] = system: MDA-MB-435
[59] = system: HOP-18 NSCLC
[60] = system: UACC-257 melanoma
[61] = system: OVCAR-5 ovarian
[62] = system: DU-145 prostate
[63] = system: HS 578T breast
[64] = system: EKVX NSCLC
[65] = system: SNB-78 CNS
[66] = system: OVCAR-8 ovarian
[67] = system: XF 498 CNS
[68] = system: HCT-15 colon

SMILES: C[C@H]1CCC2C(OC(=O)[C@@H]2CN(C)C)[C@]2(C)C(=O)C=CC12O (some centres undefined)
- TGI [1]: 20.3 µM
- TGI [2]: 3.13 µM
- TGI [3]: 38.8 µM
- TGI [4]: 44.9 µM
- TGI [5]: 42.5 µM
- TGI [6]: 9.22 µM
- TGI [7]: 25.4 µM
- TGI [8]: 12.4 µM
- TGI [9]: 31.1 µM
- TGI [10]: 11.2 µM
- TGI [11]: 38.6 µM
- TGI [12]: 12.5 µM
- TGI [13]: > 55 µM
- TGI [14]: 16.2 µM
- TGI [15]: 33.4 µM
- TGI [16]: 11 µM
- TGI [17]: 18.8 µM
- TGI [18]: 13.3 µM
- TGI [19]: 10.2 µM
- TGI [20]: 12 µM
- TGI [21]: 14.8 µM
- TGI [22]: 17.8 µM
- TGI [23]: 15 µM
- TGI [24]: > 54.4 µM
- TGI [25]: 14.6 µM
- TGI [26]: 30.8 µM
- TGI [27]: 18.4 µM
- TGI [28]: 18.2 µM
- TGI [29]: 7.18 µM
- TGI [30]: 8.35 µM
- TGI [31]: 17.7 µM
- TGI [32]: 5.74 µM
- TGI [33]: 25.2 µM
- TGI [34]: 72.8 µM
- TGI [35]: 24.2 µM
- TGI [36]: 15.1 µM
- TGI [37]: 11.6 µM
- TGI [38]: 13.6 µM
- TGI [39]: 31.2 µM
- TGI [40]: 28.7 µM
- TGI [41]: 17.9 µM
- TGI [42]: > 38.1 µM
- TGI [43]: 20.2 µM
- TGI [44]: 13.2 µM
- TGI [45]: 45.6 µM
- TGI [46]: 16.7 µM
- TGI [47]: 11.2 µM
- TGI [48]: 8.03 µM
- TGI [49]: 16 µM
- TGI [50]: > 57.5 µM
- TGI [51]: 9.32 µM
- TGI [52]: 4.72 µM
- TGI [53]: 20.3 µM
- TGI [54]: 3.11 µM
- TGI [55]: 27.1 µM
- TGI [56]: 24.5 µM
- TGI [57]: 28.6 µM
- TGI [58]: 22.4 µM
- TGI [59]: 38.9 µM
- TGI [60]: 23.6 µM
- TGI [61]: 34.1 µM
- TGI [62]: 23.2 µM
- TGI [63]: > 100 µM

SMILES: CC1=C(C(=O)NCc2ccccc2)C(c2ccco2)C(C(=O)NCc2ccccc2)=C(C)N1
- TGI [2]: > 100 µM
- TGI [3]: > 100 µM
- TGI [5]: > 100 µM
- TGI [6]: > 100 µM
- TGI [8]: > 100 µM
- TGI [9]: > 100 µM
- TGI [10]: > 100 µM
- TGI [11]: > 100 µM
- TGI [12]: > 100 µM
- TGI [13]: > 100 µM
- TGI [14]: > 100 µM
- TGI [15]: > 100 µM
- TGI [16]: > 100 µM
- TGI [17]: > 100 µM
- TGI [64]: > 100 µM
- TGI [19]: > 100 µM
- TGI [20]: > 100 µM
- TGI [21]: > 100 µM
- TGI [22]: > 100 µM
- TGI [23]: > 100 µM
- TGI [24]: 92.6 µM
- TGI [25]: > 100 µM
- TGI [26]: > 100 µM
- TGI [27]: > 100 µM
- TGI [28]: > 100 µM
- TGI [29]: > 100 µM
- TGI [30]: > 100 µM
- TGI [31]: > 100 µM
- TGI [32]: > 100 µM
- TGI [34]: > 100 µM
- TGI [35]: > 100 µM
- TGI [36]: > 100 µM
- TGI [37]: > 100 µM
- TGI [38]: > 100 µM
- TGI [39]: > 100 µM
- TGI [40]: > 100 µM
- TGI [41]: > 100 µM
- TGI [42]: > 100 µM
- TGI [43]: > 100 µM
- TGI [65]: > 100 µM
- TGI [45]: > 100 µM
- TGI [46]: > 100 µM
- TGI [48]: > 100 µM
- TGI [49]: > 100 µM
- TGI [50]: > 100 µM
- TGI [51]: 50.6 µM
- TGI [52]: > 100 µM
- TGI [53]: > 100 µM
- TGI [66]: > 100 µM
- TGI [55]: > 100 µM
- TGI [67]: > 100 µM
- TGI [57]: > 100 µM
- TGI [59]: > 100 µM
- TGI [60]: > 100 µM
- TGI [61]: > 100 µM
- TGI [68]: > 100 µM
